pIC50, pKd: −log10 of the molar value.
Tests used:
[1] = target: T1, Tyrosine-protein kinase JAK3 (Homo sapiens, UniProt P52333); experiment: Inhibition of JAK3 (unknown origin)
T1 sequence (P52333 whole entry): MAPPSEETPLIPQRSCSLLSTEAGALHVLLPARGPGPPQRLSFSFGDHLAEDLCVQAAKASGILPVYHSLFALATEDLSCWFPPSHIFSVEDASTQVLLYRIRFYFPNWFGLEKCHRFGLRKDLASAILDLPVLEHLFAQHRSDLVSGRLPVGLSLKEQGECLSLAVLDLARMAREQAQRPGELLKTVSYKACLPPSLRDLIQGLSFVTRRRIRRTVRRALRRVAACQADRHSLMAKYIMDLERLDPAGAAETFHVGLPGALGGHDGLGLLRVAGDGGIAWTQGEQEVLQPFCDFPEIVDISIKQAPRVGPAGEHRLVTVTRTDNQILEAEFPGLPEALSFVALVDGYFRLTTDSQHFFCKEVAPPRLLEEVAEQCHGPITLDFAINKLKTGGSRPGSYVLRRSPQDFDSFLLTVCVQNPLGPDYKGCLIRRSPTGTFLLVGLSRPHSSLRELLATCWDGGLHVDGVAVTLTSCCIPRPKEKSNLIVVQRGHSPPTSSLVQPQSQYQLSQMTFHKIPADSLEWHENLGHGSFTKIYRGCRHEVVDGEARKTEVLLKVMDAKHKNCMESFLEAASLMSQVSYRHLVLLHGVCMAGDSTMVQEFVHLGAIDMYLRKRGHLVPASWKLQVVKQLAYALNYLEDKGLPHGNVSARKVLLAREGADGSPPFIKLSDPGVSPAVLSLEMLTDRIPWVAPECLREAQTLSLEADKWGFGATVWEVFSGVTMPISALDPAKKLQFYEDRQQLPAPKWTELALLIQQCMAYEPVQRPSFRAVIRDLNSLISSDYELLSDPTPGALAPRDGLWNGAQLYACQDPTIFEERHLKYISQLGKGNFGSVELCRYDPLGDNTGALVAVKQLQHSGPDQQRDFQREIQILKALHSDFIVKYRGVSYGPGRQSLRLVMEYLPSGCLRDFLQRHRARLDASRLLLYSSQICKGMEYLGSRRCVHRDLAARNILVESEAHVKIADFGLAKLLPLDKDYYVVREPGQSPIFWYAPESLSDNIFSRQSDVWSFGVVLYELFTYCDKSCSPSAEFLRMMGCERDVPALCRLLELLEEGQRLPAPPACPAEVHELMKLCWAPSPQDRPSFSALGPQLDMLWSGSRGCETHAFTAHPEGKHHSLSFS

[2] = target: T2, Tyrosine-protein kinase BTK (Homo sapiens, UniProt Q06187); experiment: Binding affinity to BTK in human Ramos cells assessed as protein occupancy at 20 hrs post compound wash out; assay type: cell-based
[3] = target: T2, Tyrosine-protein kinase BTK; experiment: Inhibition of BTK (unknown origin)
[4] = target: T3, Tyrosine-protein kinase Tec (Homo sapiens, UniProt P42680); experiment: Inhibition of TEC (unknown origin)
T3 sequence (P42680 whole entry): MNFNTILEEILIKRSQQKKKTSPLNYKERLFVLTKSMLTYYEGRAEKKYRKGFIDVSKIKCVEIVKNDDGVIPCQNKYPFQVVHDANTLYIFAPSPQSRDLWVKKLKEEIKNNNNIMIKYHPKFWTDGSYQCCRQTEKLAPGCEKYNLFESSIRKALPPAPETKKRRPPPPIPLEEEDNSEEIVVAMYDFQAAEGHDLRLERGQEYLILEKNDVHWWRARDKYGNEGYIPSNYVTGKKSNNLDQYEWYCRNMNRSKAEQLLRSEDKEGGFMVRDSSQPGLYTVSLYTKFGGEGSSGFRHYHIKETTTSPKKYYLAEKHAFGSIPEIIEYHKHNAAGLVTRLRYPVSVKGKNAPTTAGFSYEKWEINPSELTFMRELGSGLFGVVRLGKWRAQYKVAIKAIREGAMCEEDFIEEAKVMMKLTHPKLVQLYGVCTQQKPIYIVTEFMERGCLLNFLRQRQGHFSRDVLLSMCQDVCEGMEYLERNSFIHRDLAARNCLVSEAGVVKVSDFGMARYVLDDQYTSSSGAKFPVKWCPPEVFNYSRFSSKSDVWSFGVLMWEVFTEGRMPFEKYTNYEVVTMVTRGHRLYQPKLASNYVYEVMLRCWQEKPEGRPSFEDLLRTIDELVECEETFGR

[5] = target: Tyrosine-protein kinase Lyn (Homo sapiens, UniProt P07948); experiment: Inhibition of LYN (unknown origin)
[6] = organism: Homo sapiens; experiment: Selectivity for BTK (unknown origin) over ITK (unknown origin)
[7] = organism: Homo sapiens; experiment: Selectivity for BTK (unknown origin) over EGFR (unknown origin)
[8] = target: T2, Tyrosine-protein kinase BTK; experiment: Binding affinity to BTK (unknown origin) assessed as residence time
[9] = target: Ribosomal protein S6 kinase alpha-3 (Homo sapiens, UniProt P51812); experiment: Binding affinity to RPS6KA3 (unknown origin)
[10] = organism: Homo sapiens; experiment: Selectivity for BTK (unknown origin) over JAK3 (unknown origin)
[11] = target: Receptor tyrosine-protein kinase erbB-4 (Homo sapiens, UniProt Q15303); experiment: Inhibition of ErbB4/HER4 (unknown origin)
Receptor tyrosine-protein kinase erbB-4, sequence (Q15303 whole entry): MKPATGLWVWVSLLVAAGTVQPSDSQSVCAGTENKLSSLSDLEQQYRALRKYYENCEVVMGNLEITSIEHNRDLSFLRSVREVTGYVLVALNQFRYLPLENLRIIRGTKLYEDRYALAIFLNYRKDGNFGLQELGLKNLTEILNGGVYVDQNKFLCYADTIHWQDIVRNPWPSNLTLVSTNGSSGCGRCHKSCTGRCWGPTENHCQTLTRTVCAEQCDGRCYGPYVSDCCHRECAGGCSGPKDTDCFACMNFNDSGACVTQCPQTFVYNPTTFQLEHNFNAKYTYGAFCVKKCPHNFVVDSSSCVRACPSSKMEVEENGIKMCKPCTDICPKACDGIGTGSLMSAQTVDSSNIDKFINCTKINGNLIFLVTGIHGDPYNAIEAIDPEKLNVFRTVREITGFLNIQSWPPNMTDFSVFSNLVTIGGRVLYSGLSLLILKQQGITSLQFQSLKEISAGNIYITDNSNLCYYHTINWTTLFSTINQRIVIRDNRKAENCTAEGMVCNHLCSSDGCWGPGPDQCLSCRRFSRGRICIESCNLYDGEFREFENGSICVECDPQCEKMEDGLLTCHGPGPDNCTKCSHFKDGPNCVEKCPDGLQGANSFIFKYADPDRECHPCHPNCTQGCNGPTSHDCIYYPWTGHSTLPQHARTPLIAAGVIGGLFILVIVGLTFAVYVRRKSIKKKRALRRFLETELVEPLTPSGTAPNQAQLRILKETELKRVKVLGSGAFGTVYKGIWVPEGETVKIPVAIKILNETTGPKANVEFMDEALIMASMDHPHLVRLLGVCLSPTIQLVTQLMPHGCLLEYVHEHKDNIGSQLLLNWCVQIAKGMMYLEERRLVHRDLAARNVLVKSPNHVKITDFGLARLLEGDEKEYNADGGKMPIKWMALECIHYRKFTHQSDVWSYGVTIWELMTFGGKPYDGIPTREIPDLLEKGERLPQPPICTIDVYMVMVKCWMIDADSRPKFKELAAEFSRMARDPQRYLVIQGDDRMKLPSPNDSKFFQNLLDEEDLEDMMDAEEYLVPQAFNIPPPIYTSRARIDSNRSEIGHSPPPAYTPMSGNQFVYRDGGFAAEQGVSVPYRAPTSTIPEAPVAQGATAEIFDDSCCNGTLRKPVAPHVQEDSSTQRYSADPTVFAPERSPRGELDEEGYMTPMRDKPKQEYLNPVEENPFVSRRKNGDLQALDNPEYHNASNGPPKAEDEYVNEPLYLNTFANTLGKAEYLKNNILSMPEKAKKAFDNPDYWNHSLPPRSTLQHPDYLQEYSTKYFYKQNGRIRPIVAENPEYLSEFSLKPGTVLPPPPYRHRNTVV

T2 sequence (Q06187 whole entry): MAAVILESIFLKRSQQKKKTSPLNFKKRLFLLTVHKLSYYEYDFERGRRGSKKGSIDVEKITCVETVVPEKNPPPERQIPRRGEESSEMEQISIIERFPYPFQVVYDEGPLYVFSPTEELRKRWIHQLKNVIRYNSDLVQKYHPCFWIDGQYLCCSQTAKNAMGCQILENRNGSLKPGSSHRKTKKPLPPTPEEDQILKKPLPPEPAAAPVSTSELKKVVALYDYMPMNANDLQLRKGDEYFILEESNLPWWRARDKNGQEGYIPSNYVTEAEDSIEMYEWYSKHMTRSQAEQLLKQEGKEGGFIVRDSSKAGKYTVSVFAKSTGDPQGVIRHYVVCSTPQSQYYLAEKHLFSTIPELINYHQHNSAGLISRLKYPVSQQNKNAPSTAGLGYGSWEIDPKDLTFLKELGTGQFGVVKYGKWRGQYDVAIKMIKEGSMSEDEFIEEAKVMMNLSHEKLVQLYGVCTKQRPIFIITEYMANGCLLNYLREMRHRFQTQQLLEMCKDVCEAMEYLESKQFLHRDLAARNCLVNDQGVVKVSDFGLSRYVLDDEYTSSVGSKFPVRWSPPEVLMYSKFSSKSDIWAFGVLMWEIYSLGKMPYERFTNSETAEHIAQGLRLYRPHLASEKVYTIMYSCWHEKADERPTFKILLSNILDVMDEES
Ribosomal protein S6 kinase alpha-3, sequence (P51812 whole entry): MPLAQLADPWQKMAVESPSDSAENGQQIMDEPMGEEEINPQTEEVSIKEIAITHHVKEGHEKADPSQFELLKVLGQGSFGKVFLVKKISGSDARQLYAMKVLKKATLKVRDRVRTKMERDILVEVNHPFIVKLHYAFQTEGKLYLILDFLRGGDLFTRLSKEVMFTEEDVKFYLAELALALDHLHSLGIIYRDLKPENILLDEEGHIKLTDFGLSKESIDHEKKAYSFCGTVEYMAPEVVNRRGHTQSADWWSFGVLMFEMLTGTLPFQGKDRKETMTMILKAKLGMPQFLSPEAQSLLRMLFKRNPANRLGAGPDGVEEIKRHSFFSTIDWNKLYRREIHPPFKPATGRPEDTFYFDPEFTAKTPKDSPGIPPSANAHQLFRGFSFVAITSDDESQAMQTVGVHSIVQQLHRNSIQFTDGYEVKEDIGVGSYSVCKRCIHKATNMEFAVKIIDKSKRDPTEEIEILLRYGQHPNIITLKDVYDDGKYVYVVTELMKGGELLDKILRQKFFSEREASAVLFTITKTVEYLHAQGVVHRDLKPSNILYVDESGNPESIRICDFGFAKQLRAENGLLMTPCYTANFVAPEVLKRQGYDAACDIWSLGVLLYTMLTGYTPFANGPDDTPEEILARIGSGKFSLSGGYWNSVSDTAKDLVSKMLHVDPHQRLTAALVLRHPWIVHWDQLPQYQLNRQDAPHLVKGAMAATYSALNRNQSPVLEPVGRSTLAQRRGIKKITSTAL
Tyrosine-protein kinase Lyn, sequence (P07948 whole entry): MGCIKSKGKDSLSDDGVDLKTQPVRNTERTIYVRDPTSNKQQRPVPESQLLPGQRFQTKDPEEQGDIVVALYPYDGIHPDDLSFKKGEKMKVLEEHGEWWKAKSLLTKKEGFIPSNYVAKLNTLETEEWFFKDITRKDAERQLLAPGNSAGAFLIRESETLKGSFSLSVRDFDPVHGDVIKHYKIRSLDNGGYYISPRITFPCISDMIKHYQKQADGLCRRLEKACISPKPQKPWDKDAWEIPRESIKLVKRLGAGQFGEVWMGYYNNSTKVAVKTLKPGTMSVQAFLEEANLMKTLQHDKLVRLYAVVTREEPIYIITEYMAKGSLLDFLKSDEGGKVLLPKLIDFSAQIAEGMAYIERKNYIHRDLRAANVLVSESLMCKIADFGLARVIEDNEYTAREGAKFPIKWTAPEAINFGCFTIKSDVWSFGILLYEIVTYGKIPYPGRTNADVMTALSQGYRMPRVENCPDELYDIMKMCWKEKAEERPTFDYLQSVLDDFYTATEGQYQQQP

SMILES: CC(C)(C)/C=C(/C#N)C(=O)N1CCC[C@@H](n2nc(-c3ccc(Oc4ccccc4)cc3)c3c(N)ncnc32)C1
- pIC50 [1]: < 5.30
- Occ [2]: 55%
- pIC50 [3]: 8.40

SMILES: C=CC(=O)Nc1cccc(Nc2nc(Nc3ccc(OCCOC)cc3)ncc2F)c1 [SPEBRUTINIB]
- pIC50 [4]: 8.21
- pIC50 [5]: 5.36

SMILES: C=CC(=O)Nc1cccc(Oc2nc(Nc3ccc(N4CCN(C)CC4)cc3)nc3ccoc23)c1 [POSELTINIB]
- pIC50 [3]: 6.19

SMILES: CN(C1COC1)C(C)(C)/C=C(\C#N)C(=O)N1CCC[C@H]1Cn1nc(-c2ccc(Oc3ccccc3)cc2F)c2c(N)ncnc21
- Selectivity ratio [6]: 60
- Selectivity ratio [7]: > 1000
- TIME [8]: 161 h
- pKd [9]: 9.27
- Selectivity ratio [10]: > 1000

SMILES: CC(C)(/C=C(\C#N)C(=O)N1CCC[C@H](n2nc(-c3ccc(Oc4ccccc4)cc3F)c3c(N)ncnc32)C1)N1CCN(C2COC2)CC1
- pIC50 [11]: 7.95

SMILES: Cc1cc2[nH]ncc2cc1-c1cccc2c(N)c(C(N)=O)nnc12
- pIC50 [3]: 8.70

Source: ChEMBL document CHEMBL4152198, “The development of Bruton's tyrosine kinase (BTK) inhibitors from 2012 to 2017: A mini-review” (Eur J Med Chem, 2018)
